Laboratory results as given in ChEMBL document CHEMBL5107998, “Structure-Activity relationship of 1-(Furan-2ylmethyl)Pyrrolidine-Based Stimulation-2 (ST2) inhibitors for treating graft versus host disease” (Bioorg Med Chem, 2022).
Activity calls are given as the source filed them. The calls are words filed in the database; no cut-off is given here.

Experiments:
[1] = Inhibition of ST2/IL-33 (unknown origin) interaction incubated for 1 hr by AlphaLISA assay; set-up: species or system Homo sapiens
[2] = Inhibition of ST2/IL-33 (unknown origin) interaction in HEK-Blue IL-33 cells assessed as reduction in NF-kapaB activation by measuring SEAP reporter level incubated for 20 hrs by QUANTI-Blue reagent based assay; assay type: cell-based; conditions: Homo sapiens, HEK-Blue IL-33, 20 h
[3] = Metabolic stability in pooled CD-1 mouse liver microsomes assessed as half life at 1 uM incubated for 60 mins in presence of NADPH by LC-MS/MS analysis; assay type: ADME, Microsome
[4] = Metabolic stability in pooled human liver microsomes assessed as half life at 1 uM incubated for 60 mins in presence of NADPH by LC-MS/MS analysis; assay type: ADME, Microsome
[5] = Cytotoxicity against HEK-Blue IL-33 cells assessed as reduction in cell viability at upto 333 uM incubated for 20 hrs by CellTiter 96 aqueous one solution cell proliferation assay; assay type: toxicity, cell-based; conditions: human, hek-blue il-33, 20 h
[6] = Half life in CD-1 mouse at 40 mg/kg, ip measured for 7 hrs by LC-MS/MS analysis; assay type: ADME, organism-based; conditions: in vivo
CD4+ve Th = assay: Inhibition of cell proliferation in C57BL/6 mouse spleen CD4-positive T cells at 1 to 10 uM incubated for 7 days in presence of T cell-depleted and irradiated splenocytes from allogeneic C3H.SW mouse by mixed lymphocyte reaction assay; assay type: functional, cell-based; conditions: dose 1-10 µM, time 7.0 day
CD8-positive T cell = assay: Inhibition of cell proliferation in C57BL/6 mouse spleen CD8-positive T cells at 1 to 10 uM incubated for 7 days in presence of T cell-depleted and irradiated splenocytes from allogeneic C3H.SW mouse by mixed lymphocyte reaction assay; assay type: functional, cell-based; conditions: dose 1-10 µM, time 7.0 day
T-cell = assay: Induction of expansion of C57BL/6 mouse tolerogenic CD4-positive […] regulatory T cells incubated for 7 days in presence of T cell-depleted and irradiated splenocytes from allogeneic C3H.SW mouse by mixed lymphocyte reaction assay; assay type: functional, cell-based; conditions: dose 1-10 µM, time 7.0 day, DDE = dose-dependent effect
[7] = Reduction in expansion of C57BL/6 mouse tolerogenic CD4-positive […] regulatory T cells at 1 to 10 uM incubated for 7 days in presence of T cell-depleted and irradiated splenocytes from allogeneic C3H.SW mouse by mixed lymphocyte reaction assay relative to control; assay type: functional; set-up: scale not given: the % may be the effect or the level left; conditions: dose 1-10 µM, time 7 day

SMILES | IC50 [1] [µM] | IC50 [2] [µM] | also measured
CN(C)Cc1cccc(C2CCCN2Cc2ccc(-c3ccccc3[N+](=O)[O-])o2)c1 (centres undefined) | 54.3 |  | 
COC(=O)c1ccc(C2CCCN2Cc2ccc(-c3ccccc3[N+](=O)[O-])o2)cc1 (centres undefined) | 20.6 |  | 
COc1ccc(C2CCCN2Cc2ccc(-c3ccccc3C(N)=O)o2)cc1 (centres undefined) | 167 |  | 
COc1ccc(C2CCCN2Cc2ccc(-c3ccccc3F)o2)cc1 (centres undefined) | 115 |  | 
O=[N+]([O-])c1ccccc1-c1ccc(CN2CCCC2c2ccc3c(c2)OCCO3)o1 (centres undefined) | 29.4 |  | 
O=[N+]([O-])c1ccccc1-c1ccc(CN2CCCC2c2ccc(N3CCCC3)cc2)o1 (centres undefined) | 12.9 | 62 | Activity [5]: Non-Toxic; half-life at 1 µM [3]: 2.67 min; half-life at 1 µM [4]: 10.1 min
COC(=O)Cc1cccc(C2CCCN2Cc2ccc(-c3ccccc3[N+](=O)[O-])o2)c1 (centres undefined) | 53 |  | 
O=[N+]([O-])c1ccccc1-c1ccc(CN2CCCC2c2ccc(N3CCCCC3)cc2)o1 (centres undefined) | 21.5 | 53.8 | half-life at 1 µM [3]: 1.29 min; half-life at 1 µM [4]: 1.95 min
O=[N+]([O-])c1ccccc1-c1ccc(CN2CCCC2c2ccccc2)o1 (centres undefined) | 97.6 |  | 
COc1ccc(-c2ccc(CN3CCC[C@@H]3c3ccc(N(C)C)cc3)o2)c([N+](=O)[O-])c1 | 10.4 | 56.4 | 
CN(C)c1ccc(C2CCCN2Cc2ccc(-c3ccc(Cl)cc3[N+](=O)[O-])o2)cc1 (centres undefined) | 21.2 |  | 
COc1ccc(C2CCCN2Cc2ccc(-c3ccccc3C(=O)O)o2)cc1 (centres undefined) | 220 |  | 
CN(C)c1ccc(C2CCCN2Cc2ccc(-c3ccccc3[N+](=O)[O-])o2)cc1 (centres undefined) | 19.6 | 33.3 | Activity [5]: Non-Toxic; half-life at 1 µM [3]: 0.95 min; half-life at 1 µM [4]: 2.54 min; t1/2 [6]: 224 min; inhibition (CD4+ve Th): Active; inhibition (CD8-positive T cell): Active; Activity (T-cell): Dde
COc1cccc(C2CCCN2Cc2ccc(-c3ccccc3[N+](=O)[O-])o2)c1 (centres undefined) | 26.7 |  | 
COc1ccc(C2CCCN2Cc2ccc(-c3cccc([N+](=O)[O-])c3)o2)cc1 (centres undefined) | 35.4 |  | 
O=C(O)c1ccc(C2CCCN2Cc2ccc(-c3ccccc3[N+](=O)[O-])o2)cc1 (centres undefined) | 80.9 |  | Activity [7]: 10%
COc1ccc(C2CCCN2Cc2ccc(-c3ccccc3C#N)o2)cc1 (centres undefined) | 116 |  | 
COc1ccccc1C1CCCN1Cc1ccc(-c2ccccc2[N+](=O)[O-])o1 (centres undefined) | 23.4 |  | 
COc1ccc(-c2ccc(CN3CCCC3c3ccc(N(C)C)cc3)o2)c([N+](=O)[O-])c1 (centres undefined) | 12.3 | 48.5 | Activity [5]: Non-Toxic
COc1ccc(C2CCCN2Cc2ccc(-c3ccccc3[N+](=O)[O-])o2)cc1 (centres undefined) | 46.6 | 56.4 | half-life at 1 µM [3]: 0.73 min; half-life at 1 µM [4]: 1.1 min; t1/2 [6]: 85.8 min
COc1ccc(C2CCCN2Cc2ccc(-c3ccc([N+](=O)[O-])cc3)o2)cc1 (centres undefined) | 22.1 |  | 

The next molecules have a lower IC50 [1] than those just listed; values first:

IC50 [1] [µM] | IC50 [2] [µM] | SMILES | also measured
6.6 | 30.6 | COc1ccc(-c2ccc(CN3CCC[C@H]3c3ccc(N(C)C)cc3)o2)c([N+](=O)[O-])c1 | 
5.46 | 44.7 | CN(C)c1cccc(C2CCCN2Cc2ccc(-c3ccccc3[N+](=O)[O-])o2)c1 (centres undefined) | half-life at 1 µM [3]: 0.78 min; half-life at 1 µM [4]: 0.57 min
6.31 | 42.5 | Cc1cc([N+](=O)[O-])ccc1-c1ccc(CN2CCC[C@H]2c2ccc(N(C)C)cc2)o1 | 
6.42 | 85.3 | O=[N+]([O-])c1ccccc1-c1ccc(CN2CCCC2c2cccc(N3CCCC3)c2)o1 (centres undefined) | half-life at 1 µM [3]: 5.61 min; half-life at 1 µM [4]: 2.27 min
7.14 |  | O=[N+]([O-])c1ccccc1-c1ccc(CN2CCCC2c2cccc(N3CCCCC3)c2)o1 (centres undefined) | 
7.73 | 42.5 | Cc1cc([N+](=O)[O-])ccc1-c1ccc(CN2CCCC2c2ccc(N(C)C)cc2)o1 (centres undefined) | half-life at 1 µM [3]: 3.64 min; half-life at 1 µM [4]: 13.7 min; t1/2 [6]: 92.4 min
9.11 | 41.4 | Cc1ccc(-c2ccc(CN3CCCC3c3ccc(N(C)C)cc3)o2)c([N+](=O)[O-])c1 (centres undefined) | Activity [5]: Non-Toxic
8.06 | 39.1 | Cc1ccc([N+](=O)[O-])c(-c2ccc(CN3CCCC3c3ccc(N(C)C)cc3)o2)c1 (centres undefined) | Activity [5]: Non-Toxic; half-life at 1 µM [3]: 0.89 min
8.11 | 53.1 | Cc1cc([N+](=O)[O-])ccc1-c1ccc(CN2CCC[C@@H]2c2ccc(N(C)C)cc2)o1 | 
6.12 |  | Cc1cc([N+](=O)[O-])ccc1-c1ccc(CN2CCCC2c2cccc(N(C)C)c2)o1 (centres undefined) | half-life at 1 µM [3]: 4.2 min; half-life at 1 µM [4]: 4.7 min
